Assay results reported in ChEMBL document CHEMBL5512619, “Anticancer mechanism of coumarin-based derivatives” (Eur J Med Chem, 2024).

How the values were obtained:
Carbonic anhydrase 1 = Carbonic anhydrase 1 (Homo sapiens, UniProt P00915); assay: Binding affinity to human CA1 assessed as inhibition constant incubated for 10 mins by phenol red dye based stopped flow CO2 hydration assay
Carbonic anhydrase 2 = Carbonic anhydrase 2 (Homo sapiens, UniProt P00918); assay: Binding affinity to human CA2 assessed as inhibition constant incubated for 10 mins by phenol red dye based stopped flow CO2 hydration assay
A549 = assay: Antiproliferative activity against human A549 cells incubated 24 hrs by MTT assay; format: functional, cell-based; conditions: A549, 24 h
MDA-MB-231 = assay: Antiproliferative activity against human MDA-MB-231 cells incubated 24 hrs by MTT assay; format: functional, cell-based; conditions: MDA-MB-231, 24 h

Sequence of Carbonic anhydrase 1 (P00915 whole entry): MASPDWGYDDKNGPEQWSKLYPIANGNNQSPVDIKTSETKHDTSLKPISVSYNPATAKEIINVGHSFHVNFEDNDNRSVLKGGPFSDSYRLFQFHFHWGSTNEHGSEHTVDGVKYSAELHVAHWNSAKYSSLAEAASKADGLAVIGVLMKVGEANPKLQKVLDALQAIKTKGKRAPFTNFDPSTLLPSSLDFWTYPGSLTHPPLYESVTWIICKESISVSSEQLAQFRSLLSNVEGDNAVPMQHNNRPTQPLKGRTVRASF

Row | SMILES | Ki (Carbonic anhydrase 1) | Ki (Carbonic anhydrase 2) | IC50 (A549) | IC50 (MDA-MB-231)
1 | COc1ccc(C(=O)Nc2ccc3c(c2)C=CS(=O)(=O)O3)cc1S(=O)(=O)N1CCCC1 | 99.4 nM | 99.4 nM |  | 
2 | C[C@@H]1CN(S(=O)(=O)c2cccc(C(=O)Nc3ccc4c(c3)C=CS(=O)(=O)O4)c2)C[C@H](C)O1 | 99.4 nM | 99.4 nM |  | 
3 | COc1ccc(C(=O)Nc2ccc3c(c2)C=CS(=O)(=O)O3)cc1S(=O)(=O)N1CCSCC1 | 99.4 nM | 99.4 nM |  | 
4 | O=C(Nc1ccc2c(c1)C=CS(=O)(=O)O2)c1cccc(S(=O)(=O)N2CCCC2)c1 | 99.4 nM | 99.4 nM |  | 
5 | O=c1oc2ccccc2cc1-c1cc(-c2ccccc2Br)nc(Cc2ccc(F)cc2)n1 |  |  | < 10000 nM | < 10000 nM
6 | COc1ccccc1-c1cc(-c2cc3ccccc3oc2=O)nc(Cc2ccc(F)cc2)n1 |  |  | < 10000 nM | < 10000 nM
7 | O=c1oc2ccccc2cc1-c1cc(-c2ccc(Cl)cc2)nc(Cc2ccc(F)cc2)n1 |  |  | < 10000 nM | < 10000 nM
8 | COc1cccc(-c2cc(-c3cc4ccccc4oc3=O)nc(Cc3ccc(F)cc3)n2)c1 |  |  | < 10000 nM | < 10000 nM
9 | O=C(Nc1ccc2c(c1)C=CS(=O)(=O)O2)c1cccc(S(=O)(=O)N2CCOCC2)c1 | 99.4 nM | 99.4 nM |  | 
10 | O=C(Nc1ccc2c(c1)C=CS(=O)(=O)O2)c1ccc(Cl)c(S(=O)(=O)N2CCCCC2)c1 | 99.4 nM | 99.4 nM |  | 
11 | O=c1oc2ccccc2cc1-c1cc(-c2ccc(Br)cc2)nc(Cc2ccc(F)cc2)n1 |  |  | < 10000 nM | < 10000 nM
12 | C[C@@H]1CN(S(=O)(=O)c2cc(C(=O)Nc3ccc4c(c3)C=CS(=O)(=O)O4)ccc2Cl)C[C@H](C)S1 | 99.4 nM | 99.4 nM |  | 
13 | O=c1oc2ccccc2cc1-c1cc(-c2ccccc2Cl)nc(Cc2ccc(F)cc2)n1 |  |  | < 10000 nM | < 10000 nM
14 | Cc1ccc(C(=O)Nc2ccc3c(c2)C=CS(=O)(=O)O3)cc1S(=O)(=O)N1CCCC1 | 99.4 nM | 99.4 nM |  | 
15 | Cc1ccc(C(=O)Nc2ccc3c(c2)C=CS(=O)(=O)O3)cc1S(=O)(=O)N1CCCCC1 | 99.4 nM | 99.4 nM |  | 
16 | O=c1oc2ccccc2cc1-c1cc(-c2cccc(Cl)c2)nc(Cc2ccc(F)cc2)n1 |  |  | < 10000 nM | < 10000 nM
17 | O=C(Nc1ccc2c(c1)C=CS(=O)(=O)O2)c1ccc(F)c(S(=O)(=O)N2CCOCC2)c1 | 99.4 nM | 99.4 nM |  | 
18 | O=c1oc2ccccc2cc1-c1cc(-c2cccc(Br)c2)nc(Cc2ccc(F)cc2)n1 |  |  | < 10000 nM | < 10000 nM
19 | COc1ccc(C(=O)Nc2ccc3c(c2)C=CS(=O)(=O)O3)cc1S(=O)(=O)N1CCOCC1 | 99.4 nM | 99.4 nM |  | 
20 | O=C(Nc1ccc2c(c1)C=CS(=O)(=O)O2)c1ccc(F)c(S(=O)(=O)N2CCCC2)c1 | 99.4 nM | 99.4 nM |  | 
21 | Cc1ccccc1-c1cc(-c2cc3ccccc3oc2=O)nc(Cc2ccc(F)cc2)n1 |  |  | < 10000 nM | < 10000 nM
22 | Cc1cccc(-c2cc(-c3cc4ccccc4oc3=O)nc(Cc3ccc(F)cc3)n2)c1 |  |  | < 10000 nM | < 10000 nM
23 | C[C@@H]1CN(S(=O)(=O)c2cc(C(=O)Nc3ccc4c(c3)C=CS(=O)(=O)O4)ccc2F)C[C@H](C)O1 | 99.4 nM | 99.4 nM |  | 
24 | COc1ccc(C(=O)Nc2ccc3c(c2)C=CS(=O)(=O)O3)cc1S(=O)(=O)N1C[C@@H](C)O[C@@H](C)C1 | 99.4 nM | 99.4 nM |  | 
25 | O=C(Nc1ccc2c(c1)C=CS(=O)(=O)O2)c1ccc(Cl)c(S(=O)(=O)N2CCOCC2)c1 | 99.4 nM | 99.4 nM |  | 
26 | COc1ccc(-c2cc(-c3cc4ccccc4oc3=O)nc(Cc3ccc(F)cc3)n2)cc1 |  |  | < 10000 nM | < 10000 nM
27 | Cc1ccc(-c2cc(-c3cc4ccccc4oc3=O)nc(Cc3ccc(F)cc3)n2)cc1 |  |  | < 10000 nM | < 10000 nM
